One data set concerns NHOK. Briefly: Mitotic capacity of NHOK through continuous subculture (PDL, SA-β-gal). The class given is cell-based, human. Conditions: 1 nM. As for the experimental part:
(§1) At the end of each stage, the population doubling level of NHOK was calculated by the following equation 1: […]
(§2) Wherein, N: PDL, Cf: total cell numbers obtained from the end of a passage, Ci: total cell numbers of attached cells at seeding.
(§3) NOOK (PDL 15) showing rapid proliferation was cultured with 2×10^5 cell per 60-mm petri dish. In addition, NHEK (PDL 11) was cultured in the same manner as in the NHOK. The cells were divided into two groups, which were cultured in KGM containing vehicle (0.001% DMSO) or 1 nM all-trans retinoic acid until the cells reached 70% confluency, and then subcultured until they reached the postmitotic stage of cell proliferation. All-trans retinoic acid was used by dissolving it in DMSO and then diluting with KGM so as to have a final DMSO concentration of 0.001%. The PDL accumulated at the last stage of each subculture and the senescent cell numbers in the cultured NHOK and NHEK, that is to say, the percentage (%) of positive cells by SA-β-gal staining were determined. The cell pellet obtained after washing with 1X PBS was frozen at −70° C. for TRAP and Western blot analysis (see, FIGS. 3a, 3b, 3c, 4a, 4b, and 4c).

Data set [1] has as its system p16^INK4A protein in NHOK. Kind of data set: p16^INK4A protein level in NHOK by Western blot. The class given is cell-based, human. The following applies: 1 nM, at any given PDL number. Here is the method: (§4) To investigate the expression levels of pRb and p16^INK4A proteins in NHOK and NHEK that are exposed to all trans retinoic acid, Western blot analysis (Min B. -M. et al., Int. J. Oncol., 1995, 7, 249-256) was performed using anti-mouse Rb (IFB) monoclonal antibody and anti-human p16 (C-20) polyclonal antibody (Santa Cruz Biotechnology). After probing with each of the respective antibodies, the membrane was stained with 1X Ponceau S stain for 10 minutes to reveal the total protein loading per lane.
Background: Immunoblotting shows a protein as a band on a membrane.

Data set [2] concerns normal human oral keratinocytes (NHOK). Kind of data set: NHOK proliferation rate with all-trans retinoic acid (viable cell count by trypan blue exclusion). Format: cell-based. Here is the method:
NHOK were prepared from human gingival tissue specimens (Min B. -M. et al., Int. J. Oncol., […], 7, 249-256). The tissue samples obtained from four healthy volunteers (ages ranged from 18 to 30 years) were thoroughly washed three times with calcium and magnesium-free Hanks' balanced salt solution (CMF-HBSS; GibcoBRL). In order to separate the epithelial tissue from the underlying mucosa, the tissue scruples were incubated in CMF-HBSS containing collagenase type II (1.0 mg/ml; Sigma Chemical Co.) and dispase grade II (2.4 mg/ml; Boeringer-Mannheim) for 90 min at 37° C. in 95% air and 5% carbon dioxide Primary NHOK were prepared from separated oral epithelial tissue (Min B. -M. et al., Int. J. Oncol. 1995, 7, 249-256), and cultured in keratinocyte basal medium containing 0.15 mM calcium and supplementary growth factor bullet kit (KGM; Clonetics Corp.) as described above. […]
To determine the effect of all-trans retinoic acid on cell proliferation, rapidly proliferating NHOK (PDL 18) were plated at 2×10^4 cells per well in a 24-well culture plate. […] The average number and standard deviation were calculated as the means of four independent experiments (FIG. 1a).

For data set [3], the system named is telomerase activity of NHEK. Kind of data set: Telomerase activity of NHEK by TRAP assay. The class given is cell-based, human. Conditions: 1 nM. Here is the method: (§5) To investigate telomerase activity of NHOK and NHEK exposed to all-trans retinoic acid, the telomerase activity was determined using a TPAP-eze telomerase detection kit (Oncor Inc.), which, is based on the TRAP assay.
(§6) More specifically, the frozen cell pellet in the above example 4 was dissolved in 200 μl of 1X CHAPS buffer (composition: 10 mM Tris-HCl pH 7.5, 1 mM MgCl2; 1 mM EDTA 0.5% 3[(3-cholamidopropyl)-dimethylammonium]-1-propanesulfonate, 10% glycerol, 5 mM β-mercaptoethanol and 0.1 mM benzamidine), incubated on ice for 30 minutes; and then centrifuged at 12,000 rpm for 30 minutes at 4° C. The separated supernatant was aliquoted and frozen on dry ice for TRAP assay.
(§7) For TRAP analysis, 2 μl of cell lysate containing 1.0 μg of cellular proteins were added to 48 μl of solution including 1X TRAP reaction buffer [composition: 20 mM Tris-HCl (pH 8.3), 1.5 mM MgCl2, 63 mM KCl 0.005% Tween 20, and 1 mM EGTA], 50 μM of each of four types of deoxynucleotide triphosphates, 0.05 μg of TS primer end-labeled with 20 μCi of [γ^32-P] ATP (3000 Ci/mmol; Amersham Corp.), 1 μl of primer mix, and Taq DNA polymerase (Perkin-Elmer) 0.4 unity. […] The PCR products were run in 12.5% nondenaturing polyacrylamide gel in 1X Tris-borate EDTA for 90 minutes at 60 W. After drying the gel, the radioactive signal was detected by autoradiography.

Data set [4] concerns normal human epidermal keratinocytes (NHEK). Kind of data set: NHEK proliferation rate with all-trans retinoic acid (viable cell count by trypan blue exclusion). The class given is cell-based. As for the experimental part: NHEK was prepared in the same manner as in the above example 1, except that tissue samples were taken from human foreskin tissue specimens of two healthy volunteers (ages ranged from 1 to 3 years).
To determine the effect of all-trans retinoic acid on cell proliferation, rapidly proliferating NHEK (PDL 11) were plated at 2×10^4 cell per well in a 24-well plate and cultured until their cell density reached 40% (24 hours after the plating). The cultured cells were exposed to all-trans retinoic acid containing various concentrations, 1 nM, 10 nM, 100 nM, 500 nM, 1 μM, and 5 μM and harvested after 2 or 4 days of incubation to count the number of viable cells by trypan blue exclusion. The average number and standard deviation was calculated as above same procedure (FIG. 1b).

Data set [5] deals with p16^INK4A protein in NHEK. Briefly: p16^INK4A protein level in NHEK by Western blot. The class given is cell-based, human. The following applies: 1 nM, PDL 13.6-17.1. As for the experimental part: as §4
The nature of data set [6]: Acute oral toxicity test of rat. Conditions: Sprague-Dawley, in vivo, 1 g/kg/15 ml.
Description: To investigate the acute oral Toxicity test: Sprague-Dawley rats aged 6 weeks are used. Two rats per group were orally administered with all-trans retinoic acid and the 0.5% methyl cellulose solutions at a dose of 1 g/kg/15 ml one time. After administration, clinical symptoms, occurrence of death and the change of weight were observed. In addition, the rats were killed after administration, dissected, and celiac intestine and thoracic were examined with the unaided eye.
For a further data set, the system named is NHEK. Briefly: Mitotic capacity of NHEK through continuous subculture (PDL, SA-β-gal). The class given is cell-based, human. The following applies: 1 nM. As for the experimental part: as §1, §2, §3
A further data set relates to senescent NHOK (PDL 22). Kind of data set: Senescence inhibition of senescent NHOK by SA-β-gal staining. The class given is cell-based, human. The following applies: 1 nM, 21 days. The source says:
The senescent NHOK were positively stained by β-galactosidase (Dimri G. D. et al., Proc. Nat. Acad. Sci., 1995, 92, 9363-9367). Using such properties, the inhibition against senescence of all-trans retinoic acid-treated NHOK was examined. […]
To ensure a representative count, each cell culture was divided into four equal parts and minimum two areas per each part were photographed with Olympus IMT-2 phase-contrast microscope, thus counting the cells. As the result, minimum 500 or more cells per each part were counted.
After the senescent NHOK (PDL 22) were exposed to 1, 10, or 100 nM retinoic acid for 21 days the percentage (%) of senescent cells was obtained from SA-β-gal positive cell (%) versus total cells. The average percentage (%) and standard deviation were calculated from three independent experiments.

Data set [7] relates to telomerase activity of NHOK. Kind of data set: Telomerase activity of NHOK by TRAP assay. Format: cell-based, human. The following applies: 1 nM. Here is the method: as §5, §6, §7
Another data set concerns pRb protein in NHOK. Kind of data set: pRb protein level in NHOK by Western blot. The class given is cell-based, human. Conditions: 1 nM. Here is the method:
as §4

`CC1=C(/C=C/C(C)=C/C=C/C(C)=C/C(=O)O)C(C)(C)CCC1` [all-trans retinoic acid]: the “upper end of the log phase of cell proliferation (PDL)” value in the data set with NHOK (serial subculture from PDL 15, vehicle: until PDL 20) is recorded as 26 PDL; with NHEK (serial subculture from PDL 10.8, vehicle: until PDL 19.8), 24.3 PDL. Further, the “PDL at which cells ceased to proliferate” value in the data set on NHOK (serial subculture, vehicle: PDL 22) amounted to 28 PDL. Further, the entries for the “intracellular p16^INK4A protein level compared to the vehicle control” value in [1] and in data set [5] were “significantly lower” and “much lower”, respectively. The “cell proliferation of NHOK, best of the test concentrations” value in data set [2] (1 nM, among test concentrations 1 nM to 10 μM) is listed as “maximally enhanced”. Besides, the “cell proliferation of NHOK compared to the vehicle control” value in [2] (NHOK (PDL 18), 1 or 10 nM, 2 or 4 days of incubation) is given as “noticeably increased”. The telomerase activity result in [3] (PDL 24.3 and 25.1 (replicative senescence)) is on record as “hardly or almost undetected”; in data set [3] (according to the increase of PDL) it was “maintained”; in data set [7] (PDL 27 and 28 (replicative senescence)) it was “almost undetectable”; in [7] (at high PDL numbers), “maintained or slightly increased”. Moreover, in data set [4] (1 nM, among test concentrations 1 nM to 5 μM), the “cell proliferation of NHEK, best of the test concentrations” value is listed as “maximum cell proliferation”. The “growth of NHEK” value in data set [4] (1 μM or higher) is reported as “restrained in their growth”. Besides, in data set [4] (NHEK (PDL 11), 1 nM, 2 or 4 days of incubation), the “cell proliferation of NHEK compared to the vehicle control” value is listed as “notably increased”. Also, the LD50 (usually the dose at which mortality reaches 50%) in data set [6] is > 2000 mg/kg. Moreover, in the data set with NHEK (serial subculture, vehicle: PDL 20.5), the “PDL up to which cells proliferated (no further proliferation)” value is on record as 25.1 PDL. The “replicative senescence (SA-β-gal positive cells) compared to the vehicle control” value in the data set on senescent NHOK (PDL 22) is reported as “significantly inhibited”. In addition, the “pRb protein level compared to the vehicle control” value in the data set with pRb protein in NHOK (according to the increase of PDL (high PDL)) is “higher levels”. For the same compound, the “amount of pRb protein” value with pRb protein in NHOK (early culture at PDL 18) was “extremely low”. Moreover, in the data set with pRb protein in NHOK (low PDL), the “pRb protein level compared to the vehicle control of corresponding PDL” value was “much lower”.
